Where a name gives a salt, the structure may show the parent alone.
Tests used:
Assay type in all cases: cell-based
[1] = test system: pAKT (AKT phosphorylation); experiment: Western blot analysis of pAKT levels in SN12C cells; details: for pAKT levels in Ctrl cells: Ctrl SN12C cells treated overnight, western blot
Description: (§1) Cells were grown for 24 hours in serum-free medium in the presence of various inhibitors unless indicated otherwise. After a brief wash with cold PBS, cells were lysed in urea buffer (9.5 M urea, 2% 3-[(3-cholamidopropyl)dimethylammonio]-1-propanesulfonate (CHAPS)), adjusted to similar concentrations, mixed with 6× sodium dodecyl sulfate (SDS) loading dye, heated at 95° C. for 10 minutes, and subjected to SDS-polyacrylamide gel electrophoresis and semi-dry transferring to polyvinylidene fluoride (PVDF) membranes. For analysis of oxidative phosphorylation (OXPHOS) complexes, 2×10^7 Ctrl and shY/T cells were harvested and either saved as whole cell extract (WCE) or processed using the Mitochondria Isolation Kit for cultured cells according to the manufacturer's instructions (Thermo Fisher Scientific). The WCE and mitochondrial-enriched fraction were resuspended in radioimmunoprecipitation assay (RIPA) buffer for western blot analysis.

[2] = test system: pERK (ERK phosphorylation); experiment: Western blot analysis of pERK levels in SN12C cells treated with inhibitors/compounds; details: for pERK levels in shY/T cells: western blot; for pERK levels in shY/T cells with increasing concentrations: HCl 1 h 0-12 mM, BAPTA 3 h 0-13 μM, Baf 3 h 0-0.5 μM; for pERK levels in Ctrl cells: CaCl2 2 hours 0, 0.5, 1, 2 mM (FIG. 7K), bicarbonate (FIG. 8K)
Description: as §1

[3] = test system: Ctrl and shY/T SN12C cells; experiment: Nutrient deprivation experiments, percent change in RFP fluorescence (proliferation and survival); details: 3 days; for proliferation under nutrient-replete conditions: Ctrl and shY/T SN12C; for proliferation under nutrient-replete conditions / Glc- and Gln-starvation-induced cell death in shY/T cells: GSH 0.3 mM or EGF 1 μg/ml; for Glc- and Gln-starvation-induced cell death in shY/T cells: shY/T SN12C
Description: For SN12C cells, all medium in nutrient deprivation studies contained a base of RPMI salt mix (0.42 mM Ca(NO3)2.4H2O, 0.41 mM MgSO4, 5.4 mM KCl, 23.8 mM NaHCO3, 102.7 mM NaCl, and 5.6 mM Na2HPO4), RPMI 1640 vitamins solution (Millipore Sigma, St. Louis, Mo.), MEM amino acids solution (ThermoFisher Scientific), and MEM non-essential amino acids solution (Sigma). Nutrient replete conditions received 11.1 mM glucose (Millipore Sigma) and 2 mM glutamine (Lonza, Benicia, Calif.) and deprivation conditions lacked or contain reduced amount of their respective nutrient as indicated. For SC4 cells, all medium in nutrient deprivation studies contained a base of DMEM without glucose or glutamine (#D5030, Millipore Sigma) and supplemented with sodium pyruvate and sodium bicarbonate to levels in standard DMEM formulation. For conditions with glucose or glutamine, 5.6 mM glucose (Millipore Sigma) and/or 4 mM glutamine (Lonza) were added. Reduced cellular glutathione (GSH) (Alfa Aesar, Haverhill, Mass.) and epidermal growth factor (EGF) (Millipore Sigma) were used at final concentrations of 0.3 mM and 1 μg/ml, respectively. Percent survival was calculated based on the sequential measurements of red fluorescent protein (RFP) fluorescence (filter range 553-574 nm) at the initiation and end of treatment using the Synergy™ Hybrid Multi-Mode Microplate Reader (BioTek, Winooski, Vt.). A one-way ANOVA with Sidak's multiple comparison test was used to calculate significance for all nutrient deprivation experiments.

[4] = test system: shY/T SN12C cells; experiment: Intracellular calcium assay; details: shY/T SN12C grown overnight with 0 or 0.3 μM bafilomycin
Description: Cells were grown for indicated time in serum-free medium, washed with ice-cold PBS, collected in 100 mM Tris pH 7.5 buffer using cell scraper, and processed using the Calcium Assay Kit (Cayman Chemicals) according to the manufacturer's instructions. The calcium concentrations were normalized to the protein concentrations determined using Bradford Protein Assay (Bio-Rad).

[5] = test system: Ctrl and shY/T SN12C cells; experiment: Lysosome inhibitor treatment of Ctrl and shY/T cells under different nutrient conditions; details: bafilomycin 24 hours, chloroquine 3 days, −Glc or −Gln medium
Description: Nutrient replete conditions received 11.1 mM glucose (Millipore Sigma) and 2 mM glutamine (Lonza, Benicia, Calif.) and deprivation conditions lacked or contain reduced amount of their respective nutrient as indicated. For SC4 cells, all medium in nutrient deprivation studies contained a base of DMEM without glucose or glutamine (#D5030, Millipore Sigma) and supplemented with sodium pyruvate and sodium bicarbonate to levels in standard DMEM formulation. For conditions with glucose or glutamine, 5.6 mM glucose (Millipore Sigma) and/or 4 mM glutamine (Lonza) were added. […] Percent survival was calculated based on the sequential measurements of red fluorescent protein (RFP) fluorescence (filter range 553-574 nm) at the initiation and end of treatment using the Synergy™ Hybrid Multi-Mode Microplate Reader (BioTek, Winooski, Vt.). […]
Cells were plated at optimized seeding densities to reach 60-70% confluence on the next day, at which point the media were replaced with serum-free medium containing Dox and serially diluted compounds or vehicle control. […] After incubation for indicated time, cell viability was measured using the CellTiter-Glo Luminescence Cell Viability assay (Promega) or ATPlite Luminescence Assay (Perkin Elmer) for FIG. 1B. Percent viability for each cell lines was calculated based on vehicle control.

[6] = test system: shY/T SN12C cells; experiment: Media pH measurements; details: shY/T SN12C grown overnight with 0 or 0.3 μM bafilomycin
Description: Cells were plated at the same time with optimized seeding densities that ensure all cell lines to reach 80% confluence at the time of measurement. Medium supernatant was collected and measured using the Thermo Scientific™ Orion™ 3-Star Benchtop pH Meter after calibration.

[7] = shY/T SN12C cells treated overnight

O=S(=O)(NCCNC/C=C/c1ccc(Br)cc1)c1cccc2cnccc12 [H-89]
pAKT levels in Ctrl cells [1]: without also blocking pAKT | pERK levels in shY/T cells, combination of PKA inhibitor H-89 and EPAC inhibitor HJC ([2]; shY/T SN12C cells treated overnight, FIG. 8E): synergizes with EPAC inhibitor HJC in reducing pERK levels | pERK levels in shY/T cells [2, 7]: specifically inhibited ERK phosphorylation

CN=c1nc(-c2ccccc2)n(-c2ccccc2)s1 [SCH 202676]
pERK levels in shY/T cells [2, 7]: none of the GPCR inhibitors reduced ERK phosphorylation

Cl [HCl]
pERK levels in shY/T cells with increasing concentrations ([2]; shY/T SN12C): reduced pERK levels in a dose-dependent manner

[Ca+2].[Cl-].[Cl-] [calcium, CaCl2]
pERK levels in Ctrl cells ([2]; Ctrl cells): increased pERK levels

EGF: epidermal growth factor (NSDSECPLSHDGYCLHDGVCMYIEALDKYACNCVVGYIGERCQYRDLKWWELR; Epidermal growth factor; UniProt P01133 971-1023, looked up)
AKT phosphorylation in shY/T cells ([1]; shY/T SN12C cells after addition of EGF): partially rescued AKT phosphorylation | proliferation under nutrient-replete conditions [3]: allowed shY/T cells to regain the ability to proliferate | Glc- and Gln-starvation-induced cell death in shY/T cells ([3]; −Glc or −Gln): did not prevent cell death

CC(C)NCC(O)c1ccc(NS(C)(=O)=O)cc1 (centres unmarked) [Sotalol]
pERK levels in shY/T cells [2, 7]: none of the GPCR inhibitors reduced ERK phosphorylation

O=C(O)O [Bicarbonate, NaHCO3]
pERK levels in Ctrl cells ([2]; Ctrl cells): raised pERK levels

Nc1ncnc2c1ncn2[C@@H]1O[C@@H]2COP(O)(=S)O[C@H]2[C@H]1O (some centres unmarked) [Rp-cAMP]
pAKT levels in Ctrl cells [1]: without affecting pAKT | pERK levels in shY/T cells [2, 7]: specifically inhibited ERK phosphorylation

Cl.c1ccc(C2CCCC2NC2=NCCCCCCCCCCC2)cc1 (centres unmarked) [MDL 12330A]
ERK phosphorylation, tmAC activator/inhibitor alone or in combination ([2]; overnight, FIG. 8K): no effect on ERK phosphorylation

O=C(O)CN(CC(=O)O)c1ccccc1OCCOc1ccccc1N(CC(=O)O)CC(=O)O [BAPTA]
pERK levels in shY/T cells with increasing concentrations ([2]; shY/T SN12C): reduced pERK levels in a dose-dependent manner

COc1ccc2cc(-c3cc(-c4cc(C(F)(F)F)ccc4F)nn3[C@@H](C)c3ccc(C(=O)NCCC(=O)O)cc3)ccc2c1 [GRA-1]
pERK levels in shY/T cells [2, 7]: none of the GPCR inhibitors reduced ERK phosphorylation

CNc1ncc2cc(-c3cc(NC(=O)NCCC(C)(C)C)c(F)cc3C)c(C)nc2n1 [LY3009120]
pAKT levels in Ctrl cells [1]: did not reduce pAKT levels | pERK levels in shY/T cells [2, 7]: inhibited pERK levels

CO/C1=C\C(C)=C\[C@@H](C)[C@@H](O)[C@@H](C)C/C(C)=C/C=C/[C@H](OC)[C@@H]([C@@H](C)[C@@H](O)[C@H](C)[C@@]2(O)C[C@@H](O)[C@H](C)[C@@H](C(C)C)O2)OC1=O [bafilomycin]
intracellular calcium concentration [4]: significantly reduced pH and calcium levels | sensitivity of NF2-mutant cells to lysosomal inhibition upon YAP/TAZ depletion [5]: increased the sensitivity of NF2-mutant cells to lysosomal inhibition, especially under nutrient-deprived conditions | media pH [6]: significantly reduced pH | bafilomycin-mediated ERK inhibition with exogenous HCO3− ([2]; shY/T SN12C, 3 h, 0.3 μM Baf and/or 25 mM NaHCO3): rescued by the addition of exogenous HCO3^− | pERK levels in shY/T cells with increasing concentrations ([2]; shY/T SN12C): inhibited ERK phosphorylation in a dose-dependent manner

CCN(CC)CCCC(C)Nc1ccnc2cc(Cl)ccc12 (centres unmarked) [chloroquine]
sensitivity of NF2-mutant cells to lysosomal inhibition upon YAP/TAZ depletion [5]: increased the sensitivity of NF2-mutant cells to lysosomal inhibition, especially under nutrient-deprived conditions

N[C@@H](CCC(=O)N[C@@H](CS)C(=O)NCC(=O)O)C(=O)O [GSH, glutathione]
Glc- and Gln-starvation-induced cell death in Ctrl cells ([3]; Ctrl SN12C, −Glc or −Gln, GSH 0.3 mM): had no effect | proliferation under nutrient-replete conditions [3]: did not affect the proliferation | Glc- and Gln-starvation-induced cell death in shY/T cells ([3]; −Glc or −Gln): significantly inhibited

CNC(=O)c1cc(Oc2ccc(NC(=O)Nc3ccc(Cl)c(C(F)(F)F)c3)cc2)ccn1 [Sorafenib]
pAKT levels in Ctrl cells [1]: did not reduce pAKT levels | pERK levels in shY/T cells [2, 7]: inhibited pERK levels

CC(Sc1nc2ccccc2[nH]1)C(=O)N/N=C/c1cc(Br)ccc1O (centres unmarked) [KH7]
pAKT levels in Ctrl cells [1]: not pAKT | bicarbonate-raised pERK levels in Ctrl cells ([2]; Ctrl cells, bicarbonate plus KH7, FIG. 8K): blocked by KH7 | pERK levels in shY/T cells [2, 7]: drastically inhibited pERK levels

From patent publication US20220233535A1, “USE OF INHIBITORS OF YAP/TAZ FOR THE TREATMENT OF CANCER” (Georgetown University, priority 2019, published 2022)
